Reference: patent publication US20220125051A1, “PRE-HARVEST DESICCATION METHOD” (SYNGENTA CROP PROTECTION AG, priority 2019, published 2022)
Read-outs that look alike come from different tables or passages of the source.

Tests used:
Assay in all cases: Post-emergence efficacy, Method A
Assay type in all cases: in vivo
[1] = tested on: Euphorbia heterophylla (EPHHL); conditions: evaluated after 13 days; for pest or weed control at 500 g/ha: Euphorbia heterophylla, post-emergence, 312 h
How it was run: (§1)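 Plants raised 14 days from seed in standard soil in a glasshouse (24/16 °C day/night, 14 h light, 65% humidity) were sprayed with compound dissolved in acetone plus IF50 solvent/emulsifier (50 g/l solution), diluted with 0.25% or 1% Empicol ESC70 + 1% ammonium sulphate. Damage was scored visually after 13 days (0 = none, 100 = total).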

[2] = tested on: Chenopodium album (CHEAL); conditions: evaluated after 13 days; for pest or weed control at 500 g/ha: Chenopodium album, post-emergence, 312 h
How it was run: as §1

Lolium perenne (LOLPE) = conditions: evaluated after 13 days; for pest or weed control at 500 g/ha: Lolium perenne, post-emergence, 312 h
How it was run: as §1

[3] = tested on: Amaranthus palmeri (AMAPA); conditions: evaluated after 13 days; for pest or weed control at 500 g/ha: Amaranthus palmeri, post-emergence, 312 h
How it was run: as §1

Setaria faberi (SETFA) = conditions: evaluated after 13 days; for pest or weed control at 500 g/ha: Setaria faberi, post-emergence, 312 h
How it was run: as §1

[4] = tested on: Digitaria sanguinalis (DIGSA); conditions: evaluated after 13 days; for pest or weed control at 500 g/ha: Digitaria sanguinalis, post-emergence, 312 h
How it was run: as §1

[5] = tested on: Echinochloa crus-galli (ECHCG); conditions: evaluated after 13 days; for pest or weed control at 500 g/ha: Echinochloa crus-galli, post-emergence, 312 h
How it was run: as §1

Eleusine indica (ELEIN) = conditions: evaluated after 13 days; for pest or weed control at 500 g/ha: Eleusine indica, post-emergence, 312 h
How it was run: as §1

[6] = tested on: Ipomoea hederacea (IPOHE); conditions: evaluated after 13 days; for pest or weed control at 500 g/ha: Ipomoea hederacea, post-emergence, 312 h
How it was run: as §1

[7] = Application rate 500 g/Ha, 100=total damage to plant, 0=no damage to plant, read-out: Control of weed species after post-emergence application, EPHHL
[8] = Application rate 500 g/Ha, 100=total damage to plant, 0=no damage to plant, read-out: Control of weed species after post-emergence application, CHEAL
[9] = Application rate 500 g/Ha, 100=total damage to plant, 0=no damage to plant, read-out: Control of weed species after post-emergence application, LOLPE
[10] = Application rate 500 g/Ha, 100=total damage to plant, 0=no damage to plant, read-out: Control of weed species after post-emergence application, AMAPA
[11] = Application rate 500 g/Ha, 100=total damage to plant, 0=no damage to plant, read-out: Control of weed species after post-emergence application, SETFA
[12] = Application rate 500 g/Ha, 100=total damage to plant, 0=no damage to plant, read-out: Control of weed species after post-emergence application, DIGSA
[13] = Application rate 500 g/Ha, 100=total damage to plant, 0=no damage to plant, read-out: Control of weed species after post-emergence application, ECHCG
[14] = Application rate 500 g/Ha, 100=total damage to plant, 0=no damage to plant, read-out: Control of weed species after post-emergence application, ELEIN
[15] = Application rate 500 g/Ha, 100=total damage to plant, 0=no damage to plant, read-out: Control of weed species after post-emergence application, IPOHE
[16] = Application Rate 500 g/Ha, Method A, read-out: Control of weed species after post-emergence application, EPHHL (100=total damage to plant; 0=no damage to plant)
[17] = Application Rate 500 g/Ha, Method A, read-out: Control of weed species after post-emergence application, CHEAL (100=total damage to plant; 0=no damage to plant)
[18] = Application Rate 500 g/Ha, Method A, read-out: Control of weed species after post-emergence application, LOLPE (100=total damage to plant; 0=no damage to plant)
[19] = Application Rate 500 g/Ha, Method A, read-out: Control of weed species after post-emergence application, AMAPA (100=total damage to plant; 0=no damage to plant)
[20] = Application Rate 500 g/Ha, Method A, read-out: Control of weed species after post-emergence application, SETFA (100=total damage to plant; 0=no damage to plant)
[21] = Application Rate 500 g/Ha, Method A, read-out: Control of weed species after post-emergence application, DIGSA (100=total damage to plant; 0=no damage to plant)
[22] = Application Rate 500 g/Ha, Method A, read-out: Control of weed species after post-emergence application, ECHCG (100=total damage to plant; 0=no damage to plant)
[23] = Application Rate 500 g/Ha, Method A, read-out: Control of weed species after post-emergence application, ELEIN (100=total damage to plant; 0=no damage to plant)
[24] = Application Rate 500 g/Ha, Method A, read-out: Control of weed species after post-emergence application, IPOHE (100=total damage to plant; 0=no damage to plant)
[25] = Application rate 500 g/Ha, 100=total damage to plant, 0=no damage to plant

| SMILES | pest or weed control at 500 g/ha [1, 7] | pest or weed control at 500 g/ha [2, 8] | pest or weed control at 500 g/ha (Lolium perenne (LOLPE); [9]) | pest or weed control at 500 g/ha [3, 10] | pest or weed control at 500 g/ha (Setaria faberi (SETFA); [11]) | pest or weed control at 500 g/ha [4, 12] | pest or weed control at 500 g/ha [5, 13] | pest or weed control at 500 g/ha (Eleusine indica (ELEIN); [14]) | pest or weed control at 500 g/ha [6, 15] | pest or weed control at 500 g/ha [1, 16] | pest or weed control at 500 g/ha [2, 17] | pest or weed control at 500 g/ha (Lolium perenne (LOLPE); [18]) | pest or weed control at 500 g/ha [3, 19] | pest or weed control at 500 g/ha (Setaria faberi (SETFA); [20]) | pest or weed control at 500 g/ha [4, 21] | pest or weed control at 500 g/ha [5, 22] | pest or weed control at 500 g/ha (Eleusine indica (ELEIN); [23]) | pest or weed control at 500 g/ha [6, 24] | also measured |
| --- | --- | --- | --- | --- | --- | --- | --- | --- | --- | --- | --- | --- | --- | --- | --- | --- | --- | --- | --- |
| O=S(=O)([O-])CC[n+]1ccc(-c2ncccc2C(F)(F)F)cn1 [Compound A140] | 50% | 50% | 0% | 60% | 30% | 10% | 20% | 10% | 20% |  |  |  |  |  |  |  |  |  |  |
| Cc1c[n+](CCS(=O)(=O)[O-])ncc1-c1ncccn1 [Compound A87] | 50% | 30% | 70% | 50% | 70% | 70% | 70% | 60% | 40% |  |  |  |  |  |  |  |  |  |  |
| O=C(O)CC[n+]1ccc(-c2ccnc(C(F)(F)F)c2)cn1 [Compound A166] |  |  |  |  |  |  |  |  |  | 60% | 50% | 70% | 30% | 40% | 70% | 50% | 60% | 60% |  |
| CC(C(=O)OC(C)(C)C)[n+]1ccc(-c2ncccn2)cn1 (stereo not drawn) [Compound A193] |  |  |  |  |  |  |  |  |  | 60% | 60% | 10% | 70% | 10% | 30% | 10% | 30% | 30% |  |
| O=C(O)c1ccnc(-c2cc[n+](CCCS(=O)(=O)[O-])nc2)n1 [Compound A146] |  |  |  |  |  |  |  |  |  |  |  |  |  |  |  |  |  |  | Control of weed species after post-emergence application, EPHHL [1, 25]: 50; Control of weed species after post-emergence application, CHEAL [2, 25]: 40; Control of weed species after post-emergence application, LOLPE (Lolium perenne (LOLPE); [25]): 50; Control of weed species after post-emergence application, AMAPA [3, 25]: 90; Control of weed species after post-emergence application, SETFA (Setaria faberi (SETFA); [25]): 100; Control of weed species after post-emergence application, DIGSA [4, 25]: 80; Control of weed species after post-emergence application, ECHCG [5, 25]: 90; Control of weed species after post-emergence application, ELEIN (Eleusine indica (ELEIN); [25]): 80; Control of weed species after post-emergence application, IPOHE [6, 25]: 30 |
| CC(=O)c1cnc(-c2cc[n+](CCC(=O)[O-])nc2)nc1 [Compound A58] | 60% | 80% | 50% | 100% | 90% | 90% | 60% | 80% | 10% |  |  |  |  |  |  |  |  |  |  |
| CC(C[n+]1ccc(-c2ncccn2)cn1)NS(=O)(=O)[O-] (stereo not drawn) [Compound A221] |  |  |  |  |  |  |  |  |  | 90% | 90% | 60% | 100% | 80% | 100% | 60% | 100% | 60% |  |
| Cc1cnc(-c2cc[n+](CCC(=O)[O-])nc2)nc1C [Compound A96] | 90% | 20% | 60% | 70% | 70% | 40% | 70% | 40% | 40% |  |  |  |  |  |  |  |  |  |  |
| N[C@H](CC[n+]1ccc(-c2ccncn2)cn1)C(=O)O [Compound A235] |  |  |  |  |  |  |  |  |  | 20% | 40% | 0% | 10% | 30% | 40% | 30% | 10% | 20% |  |
| Cc1cc(F)cnc1-c1cc[n+](CCCS(=O)(=O)[O-])nc1 [Compound A196] |  |  |  |  |  |  |  |  |  | 30% | 40% | 0% | 30% | 0% | 0% | 0% | 10% | 20% |  |
| O=S(=O)([O-])CC[n+]1ccc(-c2ncc(C(F)(F)F)cn2)cn1 [Compound A24] | 80% | 70% | 60% | 90% | 70% | 40% | 60% | 40% | 70% |  |  |  |  |  |  |  |  |  |  |
| CO[N-]C(=O)CC[n+]1ccc(-c2ncccn2)cn1 [Compound A218] |  |  |  |  |  |  |  |  |  | 80% | 80% | 70% | 100% | 60% | 70% | 60% | 60% | 70% |  |
| O=C([O-])CC[n+]1ccc(-c2nccc(C(F)(F)F)n2)cn1 [Compound A39] | 90% | 90% | 60% | 100% | 40% | 70% | 30% | 80% | 0% |  |  |  |  |  |  |  |  |  |  |
| Cc1cnc(-c2cc[n+](CCC(=O)O)nc2)c(Cl)c1 [Compound A137] | 20% | 20% | 20% | 60% | 40% | 40% | 30% | 40% | 10% |  |  |  |  |  |  |  |  |  |  |
| O=S(=O)([O-])CCC[n+]1ccc(-c2cnc(F)cn2)cn1 [Compound A98] | 40% | 20% | 0% | 40% | 20% | 10% | 20% | 20% | 30% |  |  |  |  |  |  |  |  |  |  |
